Measured values taken from publication PMC11272085, “Steroid Drugs Inhibit Bacterial Respiratory Oxidases and Are Lethal Toward Methicillin-Resistant Staphylococcus aureus” (The Journal of Infectious Diseases, 2024).
In brackets after ≈: the same amount, converted by molar mass. Several values for one entry are separate records, joined by “and”; a condition that tells them apart may be missing. Identical values can stand only once. Entries after “also recorded” stand apart in the source; their conditions may differ. Like-named read-outs stand apart in the source and are kept apart here. No end group written: not given here.

Experiments:
E. coli cytochrome bd-I [1] = biological target: T1, E. coli cytochrome bd-I (Escherichia coli, UniProt P0ABJ9); experiment: Oxygen consumption assay (oxygen electrode), E. coli EC958 bd-I-only membranes; conditions: for Inhibition of oxygen consumption / Effect on oxygen consumption (in words): 100 µM drug; for Inhibition of oxygen consumption / IC50: 8 mM succinate; for Inhibition of oxygen consumption: 500 µg/mL membranes; for IC50: IC50 oxygen consumption; for IC50 / Effect on oxygen consumption (in words): E. coli bd-I-only membranes
T1 sequence (P0ABK2 whole entry, one chain of several): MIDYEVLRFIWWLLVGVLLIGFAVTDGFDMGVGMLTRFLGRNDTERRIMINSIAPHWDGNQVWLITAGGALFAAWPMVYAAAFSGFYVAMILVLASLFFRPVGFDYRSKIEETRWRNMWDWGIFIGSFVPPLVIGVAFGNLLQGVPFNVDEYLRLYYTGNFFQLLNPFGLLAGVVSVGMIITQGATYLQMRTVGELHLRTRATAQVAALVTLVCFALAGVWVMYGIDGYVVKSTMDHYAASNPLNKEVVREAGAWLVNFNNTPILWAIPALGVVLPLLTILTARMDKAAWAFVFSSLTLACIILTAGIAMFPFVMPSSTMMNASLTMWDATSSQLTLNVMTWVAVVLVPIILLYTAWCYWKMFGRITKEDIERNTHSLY
T1 sequence (A5A618 whole entry, one chain of several, further chain): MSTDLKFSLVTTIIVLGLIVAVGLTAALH
T1 sequence (P56100 whole entry, one chain of several, further chain): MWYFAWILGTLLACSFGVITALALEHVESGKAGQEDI

E. coli cytochrome bd-I [2] = biological target: T2, E. coli cytochrome bd-I (Escherichia coli, UniProt P0ABJ9); conditions: peptides that bind to E. coli cytochrome bd-I ref 33, 34, 35; cited from earlier work
T2 construct: endogenous in cells; host or cells: E. coli EC958 (O25:H4-ST131) bd-I-only mutant (ΔcyoA appCB::Cm), isolated cell membranes
T2 sequence (P0ABJ9 whole entry, looked up): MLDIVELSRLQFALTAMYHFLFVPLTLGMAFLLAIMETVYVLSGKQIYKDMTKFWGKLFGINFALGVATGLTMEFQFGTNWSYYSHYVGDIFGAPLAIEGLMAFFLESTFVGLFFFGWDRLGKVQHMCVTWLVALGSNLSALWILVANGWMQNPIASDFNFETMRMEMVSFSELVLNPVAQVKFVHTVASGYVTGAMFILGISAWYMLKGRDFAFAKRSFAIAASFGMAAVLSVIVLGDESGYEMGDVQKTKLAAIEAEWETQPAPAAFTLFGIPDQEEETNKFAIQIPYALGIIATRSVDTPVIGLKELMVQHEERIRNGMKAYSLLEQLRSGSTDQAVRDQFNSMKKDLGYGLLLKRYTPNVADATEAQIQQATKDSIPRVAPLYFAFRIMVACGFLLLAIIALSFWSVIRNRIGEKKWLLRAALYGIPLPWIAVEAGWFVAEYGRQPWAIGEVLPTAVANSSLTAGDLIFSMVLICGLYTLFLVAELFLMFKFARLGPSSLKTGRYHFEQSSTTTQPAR

[3] = tested on: Mycobacterium smegmatis bd-only strain; parameters: method as in PMID 31939065; conditions: ATP assays, M. smegmatis bd-only strain ref 40; cited from earlier work
E. coli cytochrome bd-I [4] = biological target: T1, E. coli cytochrome bd-I; parameters: endogenous in cells; host or cells: E. coli EC958 (O25:H4-ST131) bd-I-only mutant (ΔcyoA appCB::Cm), isolated cell membranes; conditions: peptides that bind to E. coli cytochrome bd-I ref 33, 34, 35; cited from earlier work
succinate dehydrogenase = biological target: T3, succinate dehydrogenase (Escherichia coli, UniProt P07014+P0AC41+P0AC44+P69054); experiment: Succinate dehydrogenase assay, E. coli bd-I-only membranes; format: biochemical
T3 construct: endogenous in cells; host or cells: E. coli EC958 bd-I-only mutant (ΔcyoA appCB::Cm), isolated cell membranes
T3 sequence (P0AC44 whole entry): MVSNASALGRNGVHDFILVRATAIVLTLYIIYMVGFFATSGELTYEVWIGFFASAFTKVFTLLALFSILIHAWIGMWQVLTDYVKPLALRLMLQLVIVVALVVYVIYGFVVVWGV
T3 sequence (P07014 whole entry): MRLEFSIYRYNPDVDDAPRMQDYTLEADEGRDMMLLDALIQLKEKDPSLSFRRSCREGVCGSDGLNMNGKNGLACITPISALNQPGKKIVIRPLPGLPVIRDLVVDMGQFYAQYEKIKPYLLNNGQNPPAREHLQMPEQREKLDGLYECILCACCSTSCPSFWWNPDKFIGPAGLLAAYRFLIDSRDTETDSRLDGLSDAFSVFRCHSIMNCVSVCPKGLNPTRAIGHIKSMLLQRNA
T3 sequence (P0AC41 whole entry): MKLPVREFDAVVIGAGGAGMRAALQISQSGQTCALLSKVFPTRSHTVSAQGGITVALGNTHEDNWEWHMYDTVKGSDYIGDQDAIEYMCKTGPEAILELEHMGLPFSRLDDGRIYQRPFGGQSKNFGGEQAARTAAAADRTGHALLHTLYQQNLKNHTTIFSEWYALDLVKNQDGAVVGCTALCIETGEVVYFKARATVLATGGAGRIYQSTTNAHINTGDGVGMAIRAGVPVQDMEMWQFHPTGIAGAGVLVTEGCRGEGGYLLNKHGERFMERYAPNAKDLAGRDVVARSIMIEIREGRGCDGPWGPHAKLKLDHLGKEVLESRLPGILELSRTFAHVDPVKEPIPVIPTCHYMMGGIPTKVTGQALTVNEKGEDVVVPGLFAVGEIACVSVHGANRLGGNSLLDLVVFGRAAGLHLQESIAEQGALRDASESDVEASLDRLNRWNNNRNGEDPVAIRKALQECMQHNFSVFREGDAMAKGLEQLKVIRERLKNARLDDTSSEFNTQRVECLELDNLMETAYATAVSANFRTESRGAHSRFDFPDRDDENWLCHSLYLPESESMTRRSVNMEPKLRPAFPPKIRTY
T3 sequence (P69054 whole entry): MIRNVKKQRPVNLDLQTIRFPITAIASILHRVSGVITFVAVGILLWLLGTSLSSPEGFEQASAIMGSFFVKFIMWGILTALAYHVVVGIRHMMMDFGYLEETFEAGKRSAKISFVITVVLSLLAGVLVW
Protocol: The method used for the succinate dehydrogenase assay is an adaptation of Kolaj-Robin et al. 2011 [6]. A 1 mL mixture was prepared with a final concentration of 400 μM phenazine methosulfate (PMS), 8 mM succinate, 50 mM Tris-HCL (pH 8.5) buffer, 0.02 % n-dodecyl-β-D-maltoside, 2.5% drug, 500 µg/mL of bacteria membranes and 50 μM of dichlorophenolindophenol (added last). The phenazine methosulfate, succinate and membranes were first preincubated for 30 min at 37 °C before being added to the remaining mixture. To start the reaction, 50 μM of dichlorophenolindophenol was added that produced a starting OD600 that ranged from 0.8 to 1. Spectrakinetics were recorded on a Cary 60 spectrophotometer for 15 min.
Supplementary Figure S3. Succinate dehydrogenase (SDH) E. coli membrane assay with quinestrol. The activity of SDH was expressed as a percentage of the DMSO only control. Data represent the means of three repeats and error bars represent the standard deviation.

E. coli bd-I-only cells = experiment: Viability assay, E. coli bd-I-only; format: cell-based, Escherichia coli; conditions: data not shown
[5] = tested on: vancomycin-resistant Enterococcus faecium; parameters: method as in PMID 28190396; conditions: previous screen ref 31; cited from earlier work
MRSA = tested on: MRSA; parameters: method as in PMID 28190396; conditions: previous screen ref 31; cited from earlier work
gram-negative species = tested on: gram-negative species; parameters: method as in PMID 28190396; conditions: previous screen ref 31; cited from earlier work
E. coli WT cells = experiment: Viability assay, E. coli WT; conditions: 3 hours exposure
Protocol: (§1) Viability assays were performed essentially as described by Webster et al [22]. In brief, E. coli EC958 was grown overnight in 10 mL LB medium and was used to inoculate M9 medium. MRSA cells were grown in TSB medium throughout. Twenty microliters of each drug was added to the wells of row A of a 96-well plate followed by 180 µL of cells (OD600 of 0.1). Cells were exposed to drug for 3 hours at 37°C. Following drug exposure, serial dilutions were performed in 1× phosphate-buffered saline (pH 7.4) before being spotted onto LB agar plates overnight to determine changes in cell growth. Six repeats were performed for each concentration of drug, which included 2 biological repeats and 3 technical repeats of each.

MRSA USA300 WT = experiment: Growth assay, MRSA USA300 WT
Protocol: (§2) Starter cultures were grown in 10 mL Luria–Bertani (LB) (E. coli) or 10 mL Tryptic Soy Broth (TSB) medium (MRSA) in sterile 50 mL conical flasks at 180 rpm and 37°C, until stationary phase was reached, and were used to inoculate 50 mL of fresh growth medium in 250 mL conical flasks. M9 minimal medium was used for E. coli (16 g/L Na2HPO4.2H2O, 3 g/L KH2PO4, 0.5 g/L NaCl, 1 g/L NH4Cl, 0.24 g/L MgSO4, 0.01 g/L CaCl2, 0.1% casamino acids, and 2% glycerol), and TSB medium was used for MRSA. […] Greiner F-bottom sterile 96-well plates were prepared by adding 100 µL of a 2× concentrated growth medium, 61.7 µL sterile milliQ H2O, 5 µL of the drug, and 33.3 µL of cell culture (final optical density at 600 nm [OD600] of ∼ 0.1). Cells were grown in a FLUOstar Omega plate reader at double orbital pattern setting with readings being taken 300 seconds apart.

E. coli EC958 WT = experiment: Growth assay, E. coli EC958 WT; conditions: Escherichia coli, EC958WT, read-out: IC50 growth
Protocol: as §2

E. coli bo′-only cells = experiment: Viability assay, E. coli bo′-only; conditions: data not shown
MRSA WT cells = experiment: microbe, parasite or virus in culture; conditions: Staphylococcus aureus, 3 h, read-out: LC50 (median lethal concentration)
Protocol: as §1

MRSA bd-only cells = experiment: microbe, parasite or virus in culture; conditions: Staphylococcus aureus, 3 h, read-out: LC50 (median lethal concentration)
Protocol: as §1

MRSA aa3-only cells = experiment: microbe, parasite or virus in culture; conditions: Staphylococcus aureus, 3 h, read-out: LC50 (median lethal concentration)
Protocol: as §1

MRSA bd-only strain = experiment: Growth assay, MRSA USA300 bd-only strain; conditions: Staphylococcus aureus, read-out: IC50 growth
Excerpt: (§3) The methicillin-resistant Staphylococcus aureus (MRSA) strain used is the well-characterized USA300 LAC isolate [27], a community-associated MRSA strain isolated from the Los Angeles County Jail. All MRSA mutant strains were generated by phage transduction of the relevant transposon mutant from the Nebraska Transposon Mutant Library [28] into strain USA300 LAC using methods described previously [29], generating clean insertions in the loci of interest and conferring erythromycin resistance. For the purposes of this article, the MRSA qoxA::Tn strain will be referred to as “bd-only” while the cydA::Tn strain will be referred to as “aa3-only.”
(§4) Starter cultures were grown in 10 mL Luria–Bertani (LB) (E. coli) or 10 mL Tryptic Soy Broth (TSB) medium (MRSA) in sterile 50 mL conical flasks at 180 rpm and 37°C, until stationary phase was reached, and were used to inoculate 50 mL of fresh growth medium in 250 mL conical flasks. M9 minimal medium was used for E. coli (16 g/L Na2HPO4.2H2O, 3 g/L KH2PO4, 0.5 g/L NaCl, 1 g/L NH4Cl, 0.24 g/L MgSO4, 0.01 g/L CaCl2, 0.1% casamino acids, and 2% glycerol), and TSB medium was used for MRSA. […] Cells were grown in a FLUOstar Omega plate reader at double orbital pattern setting with readings being taken 300 seconds apart.

MRSA aa3-only strain = experiment: Growth assay, MRSA USA300 aa3-only strain; conditions: Staphylococcus aureus, read-out: IC50 growth
Excerpt: as §3, §4

E. coli bo′-only strain = experiment: Growth assay, E. coli EC958 bo′-only strain; conditions: Escherichia coli, read-out: IC50 growth
Excerpt: as §3, §4

E. coli bd-I-only strain = experiment: Growth assay, E. coli EC958 bd-I-only strain; conditions: Escherichia coli, read-out: IC50 growth
Excerpt: as §3, §4

MRSA cytochrome bd = MRSA cytochrome bd (Staphylococcus aureus, UniProt A0A0H2XF42); experiment: Oxygen consumption assay, MRSA bd-only membranes; conditions: read-out: IC50 oxygen consumption; MRSA bd-only membranes 1 mg/mL, 500 µM NADH
MRSA cytochrome bd, sequence (A0A0H2XF42 entry or part of it): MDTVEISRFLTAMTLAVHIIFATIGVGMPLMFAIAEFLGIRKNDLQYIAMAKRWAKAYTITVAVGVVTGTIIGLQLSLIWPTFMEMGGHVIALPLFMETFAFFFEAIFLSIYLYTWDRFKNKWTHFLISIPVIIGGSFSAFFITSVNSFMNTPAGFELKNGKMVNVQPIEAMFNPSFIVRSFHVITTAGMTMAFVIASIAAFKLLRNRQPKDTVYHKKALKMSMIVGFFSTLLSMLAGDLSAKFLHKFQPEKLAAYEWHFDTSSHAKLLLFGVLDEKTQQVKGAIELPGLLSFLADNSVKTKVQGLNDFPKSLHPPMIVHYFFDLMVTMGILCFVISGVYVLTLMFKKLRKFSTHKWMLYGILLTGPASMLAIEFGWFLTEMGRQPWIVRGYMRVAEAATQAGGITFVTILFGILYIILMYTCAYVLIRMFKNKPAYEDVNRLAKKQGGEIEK
MRSA cytochrome bd, sequence (A0A0H2XJA4 entry or part of it, further chain): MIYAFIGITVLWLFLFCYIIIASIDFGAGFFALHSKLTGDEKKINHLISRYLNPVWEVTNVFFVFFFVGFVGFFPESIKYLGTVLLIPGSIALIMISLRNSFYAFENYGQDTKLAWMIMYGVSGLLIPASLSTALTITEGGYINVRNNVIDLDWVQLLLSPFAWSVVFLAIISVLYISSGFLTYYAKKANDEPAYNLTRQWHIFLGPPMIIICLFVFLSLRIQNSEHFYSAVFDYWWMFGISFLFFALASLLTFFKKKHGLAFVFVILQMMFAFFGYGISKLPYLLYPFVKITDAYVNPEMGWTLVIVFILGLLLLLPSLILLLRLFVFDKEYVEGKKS

C#C[C@]1(O)CC[C@H]2[C@@H]3CCc4cc(O)ccc4[C@H]3CC[C@@]21C [Ethinyl estradiol]
Inhibition of oxygen consumption (E. coli cytochrome bd-I [1]): 2 fold | IC50 (E. coli cytochrome bd-I [1]): 159 µM and 158 µM

cathelicidin LL-37
IC50 (in words) (E. coli cytochrome bd-I [2]): µM range

CCn1c(C(=O)O)c(CNCCc2ccc(Cl)cc2)c2ccccc21 [MQL-H2, 3-[[2-(4-chlorophenyl)ethylamino]methyl]-1-ethyl-indole-2-carboxylic]
IC50 [3]: 34 µM

microcin J25 (GGAGHVPEYFVGIGTPISFYG; ends and bridges not checked; UniProt Q9X2V7 38-58, looked up)
IC50 (in words) (E. coli cytochrome bd-I [2]): µM range

gramicidin S
IC50 (in words) (E. coli cytochrome bd-I [4]): µM range

C#C[C@]1(O)CC[C@H]2[C@@H]3CCc4cc(OC5CCCC5)ccc4[C@H]3CC[C@@]21C [Quinestrol]
Succinate dehydrogenase activity (in words) (succinate dehydrogenase): does not inhibit succinate dehydrogenase activity | Bactericidal activity (in words) (E. coli bd-I-only cells): no killing effects | Growth inhibition (in words) [5]: inhibit the growth | Growth inhibition (in words) (MRSA): inhibit the growth | Growth inhibition (in words) (gram-negative species): not gram-negative species | Bactericidal activity (in words) (E. coli WT cells): not lethal | Bactericidal activity (in words) (E. coli WT cells; listed as quinestrol): did not kill; also recorded: completely resistant to killing | IC50 (MRSA USA300 WT; Staphylococcus aureus, read-out: IC50 growth, MRSA WT, TSB medium): 9.8 µg/mL and 27 µM | IC50 (MRSA USA300 WT; read-out: IC50 growth, MRSA WT, TSB medium): 26.9 µM | IC50 (E. coli EC958 WT): 0.1 µg/mL and 300 nM | Bactericidal activity (in words) (E. coli bo′-only cells): no killing effects | CC50 (MRSA WT cells): 3.4 ± 0.7 µg/mL (≈ 9.33 µM) | CC50 (MRSA bd-only cells): 5.6 ± 0.3 µg/mL (≈ 15.4 µM) | CC50 (MRSA aa3-only cells): 24.7 ± 1.6 µM | IC50 (MRSA bd-only strain): 2.2 µg/mL and 6 µM | IC50 (MRSA aa3-only strain): 5.7 µg/mL and 15.6 µM | IC50 (E. coli bo′-only strain): 0.1 µg/mL and 300 nM | IC50 (E. coli bd-I-only strain): 0.06 µg/mL and 200 nM | IC50 (MRSA cytochrome bd): 2.69 µM | Inhibition of oxygen consumption (E. coli cytochrome bd-I [1]): 4 fold | IC50 (E. coli cytochrome bd-I [1]): 0.549 µM and 0.5 µM | Residual oxygen consumption activity (E. coli cytochrome bd-I [1]; at higher concentrations): around 20%

C#C[C@]1(O)CC[C@H]2[C@@H]3CCc4cc(OC)ccc4[C@H]3CC[C@@]21C [Mestranol]
Effect on oxygen consumption (in words) (E. coli cytochrome bd-I [1]): did not diminish oxygen consumption | Effect on oxygen consumption (in words) (E. coli cytochrome bd-I [1]; listed as mestranol): no inhibitory effects
